We go through three compounds from ChEMBL document CHEMBL1135518 (J Med Chem, 2002).

Assay [1] relates to Rattus norvegicus. The assay is described as follows: The increase in the extracellular levels of 5-HT in the rat ventral hippocampus at a dose of 5.0 mg/kg sc measured by in vivo microdialysis. It is filed as functional. To be noted: route subcutaneous.
The test system of assay [2] is Rattus norvegicus. The assay is described as follows: The increase in the extracellular levels of DOPAC in the rat ventral hippocampus at a dose of 5.0 mg/kg sc measured by in vivo microdialysis. To be noted: route subcutaneous. In kind it is functional.
For assay [3], the target named is T1, Adrenergic receptor alpha-2 (Rattus norvegicus, UniProt P22086+P19328+P22909).
T1 sequence (P22086 whole entry): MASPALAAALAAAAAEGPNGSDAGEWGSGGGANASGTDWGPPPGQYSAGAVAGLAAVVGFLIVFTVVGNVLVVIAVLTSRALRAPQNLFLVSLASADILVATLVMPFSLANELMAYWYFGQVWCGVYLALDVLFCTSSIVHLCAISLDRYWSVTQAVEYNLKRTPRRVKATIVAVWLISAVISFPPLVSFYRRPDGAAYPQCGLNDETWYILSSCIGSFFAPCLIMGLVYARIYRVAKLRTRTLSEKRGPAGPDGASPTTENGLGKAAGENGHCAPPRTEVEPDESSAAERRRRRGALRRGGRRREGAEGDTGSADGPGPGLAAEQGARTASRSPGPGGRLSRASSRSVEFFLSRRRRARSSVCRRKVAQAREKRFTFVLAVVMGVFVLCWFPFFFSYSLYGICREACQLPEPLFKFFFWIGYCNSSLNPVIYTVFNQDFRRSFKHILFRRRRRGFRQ
T1 sequence (P19328 whole entry): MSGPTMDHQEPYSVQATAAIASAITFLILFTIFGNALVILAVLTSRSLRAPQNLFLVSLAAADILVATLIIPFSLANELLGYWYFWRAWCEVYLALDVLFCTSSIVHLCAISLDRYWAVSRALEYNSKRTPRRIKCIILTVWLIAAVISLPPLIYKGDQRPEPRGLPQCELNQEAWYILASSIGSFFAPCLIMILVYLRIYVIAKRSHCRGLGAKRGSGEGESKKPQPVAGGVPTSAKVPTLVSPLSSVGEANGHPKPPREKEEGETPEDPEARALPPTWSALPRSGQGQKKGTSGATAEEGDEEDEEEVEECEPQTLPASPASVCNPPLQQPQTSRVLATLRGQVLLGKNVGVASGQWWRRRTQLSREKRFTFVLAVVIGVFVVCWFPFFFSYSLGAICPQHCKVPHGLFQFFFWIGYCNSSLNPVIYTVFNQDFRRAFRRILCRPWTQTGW
T1 sequence (P22909 whole entry): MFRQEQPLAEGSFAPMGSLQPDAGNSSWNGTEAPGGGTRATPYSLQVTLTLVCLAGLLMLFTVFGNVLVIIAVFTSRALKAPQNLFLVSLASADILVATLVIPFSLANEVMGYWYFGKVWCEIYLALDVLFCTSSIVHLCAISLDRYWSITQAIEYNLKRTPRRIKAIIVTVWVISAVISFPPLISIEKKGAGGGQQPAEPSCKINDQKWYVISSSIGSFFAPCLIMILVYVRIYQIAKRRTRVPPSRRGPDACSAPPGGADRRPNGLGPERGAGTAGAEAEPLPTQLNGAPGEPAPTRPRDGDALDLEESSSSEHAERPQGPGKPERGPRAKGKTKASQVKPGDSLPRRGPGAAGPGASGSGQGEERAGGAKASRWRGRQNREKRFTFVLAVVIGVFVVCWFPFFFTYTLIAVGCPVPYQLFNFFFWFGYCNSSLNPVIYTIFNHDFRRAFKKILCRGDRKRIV
The experiment in a line: The binding affinity at the Alpha-2 adrenergic receptor determined using [3H]RX-821002. In kind it is protein assay.

In assay [4] the test system is Rattus norvegicus. The experiment in a line: The increase in the extracellular levels of NA in the rat ventral hippocampus at a dose of 2.5 mg/kg sc measured by in vivo microdialysis. In kind it is functional. Conditions: route subcutaneous.

On to `COc1cccc2c1N1CCN(C)CC1c1ccccc1C2` (racemic), for which the Increase in assay [1] turned out to be 200%; in assay [2], 160%.
As usually defined, the Ki is a measure of affinity in units of concentration, obtained from inhibition or displacement. Read a low Ki as tighter binding. `COc1cccc2c1N1CCN(C)C[C@@H]1c1ccccc1C2` yielded a Ki in assay [3] of 73 nM. In assay [4], this compound displayed an Increase of 200%.
As for `COc1cccc2c1N1CCN(C)C[C@H]1c1ccccc1C2`, the Ki in assay [3] is 37 nM.
